# What was measured:
# Type in all cases: cell-based, Escherichia coli
# E. coli SAC-2 [1] = experiment: Log kill / surviving titer in aqueous bacterial suspension, plating on TSA; conditions: for Log Kill (Lactic Acid + Surfactant): surfactant 0.2% in 2.5% lactic acid; for Log Kill (TSA): lactic acid alone, plated on TSA
# Protocol: In each instance a target sample was employed using approximately 50 micro liters of an SAC-2 culture. E. coli “SAC-2,” was a Gram-negative strain isolated from municipal sewage. The tests were performed at room temperature, i.e., 75 deg. F. […] The results of each test sample were evaluated using a series of 10-fold dilutions as needed to determine, on a standard plating agar (TSA), the titer of bacteria that survived the antimicrobial treatment.
# The same procedure was employed as in Example 2, but the only agent added to the target solution was Niaproof 08. No lactic acid was employed.
# The mixture was then diluted and plated as previously described.
# Increasing amounts of reagent were added to a series of test tubes. […] The bacterial titer of each mixture was determined by preparation and plating of serial dilutions on TSA.
# […] […] The amphoteric and zwitterionic surfactants, which carry a net positive charge under the conditions of the reaction mixture, caused enhancement of the log kill by lactic acid. All anionic surfactants tested caused substantial enhancement of the log kill by lactic acid.
# E. coli ATCC 12435 = experiment: as above; conditions: for Log Kill (Lactic Acid + Surfactant): 15 seconds, 74 to 80 degrees F.; for Log Kill (TSA): lactic acid alone, plated on TSA
# Protocol: The “reaction” (i.e. interaction of antimicrobial agent and the target organism) was initiated by the addition of bacteria to the antimicrobial solution. The reaction was allowed to proceed for the respective time periods listed in Table I (i.e., at least 15 seconds each) and was terminated at the end of that time by adding quench buffer comprising 3.2 M potassium phosphate buffer, pH 7.2. The sample then was evaluated using serial 10-fold dilutions into sterile phosphate buffer as needed to determine, on Tryptic Soy agar (“TSA”), the titer of surviving bacteria. TSA is a medium that allows the growth of most bacteria.
# The reduction in the bacterial count is expressed as the “log kill” which is defined as log10 [initial cfu/ml]−log10 [remaining cfu/ml]; where “cfu” refers to “colony forming unit.” All log kills reported herein are positive “base 10.”). Inasmuch as the standard assay mixture contained only ca. 25×10^6 cfu initially (equivalent to 7.398 log) the theoretical maximum kill that can be measured with this assay system is ca. 7.4 log and the practical measuring limit is ca. 6 log. Therefore, high levels of log reduction were monitored by plating reaction mixtures directly (without dilution) onto agar medium. The results are reported in Table I and illustrated in graph format in FIG. 1. […] The tests were replicated with E. coli ATCC 43888, a pathogenic strain of E. coli O157:H7. […]
# After incubation for 15 seconds at ambient temperature the reaction was quenched by addition of phosphate buffer and the titer of surviving bacteria was determined by plating on TSA as described in the previous examples. […] The amphoteric and zwitterionic surfactants, which carry a net positive charge under the conditions of the reaction mixture, caused enhancement of the log kill by lactic acid. All anionic surfactants tested caused substantial enhancement of the log kill by lactic acid.
# E. coli ATCC 43888 = experiment: Reaction mixture streak plate, visual observation; conditions: 2.5 wt. % lactic acid only (Niaproof 08 0), room temperature
# Protocol: The tests were performed at room temperature.
# E. coli ATTC 12435 = experiment: Lactic acid treatment followed by contact with surfactant (bile salts) on VRBA; conditions: quenched, then plated on VRBA (bile salts, neutral pH)
# Protocol: (§1) VRBA was designed for the enumeration of coliform bacteria by selecting against most other common bacteria. The principal difference between TSA and VRBA—besides the presence of indicator dyes in VRBA—is the inclusion of bile salts in the VRBA. Historically, bile salts were added to media used to culture intestinal bacteria in order to mimic the intestinal environment more closely. Bile salts also happen to be anionic surfactants.
# (§2) Plating of serial dilutions of E. coli SAC-2 made in dilute phosphate buffer (pH 7.2) on VRBA was completed in less than 15 minutes after termination of individual reaction mixtures by addition of quench buffer (phosphate, pH 7.2). Thus, contact with the surfactant in VRBA was made in less than 15 minutes and more than 8 minutes after reaction termination.
# The observations were confirmed with E. coli ATTC 12435 as follows: […]
# E. coli SAC-2 [2] = experiment: as above; conditions: quenched, then plated on VRBA (bile salts, neutral pH)
# Protocol: as §1, §2
# [3] = tested on: E. coli ATCC 43888 (O157:H7); experiment: Log kill in aqueous bacterial suspension, plating on TSA; conditions: for Lactic Acid (Log Kill): 2.5% lactic acid, 73 deg. F.; for Log Kill: lactic acid alone, ca. 75 deg. F., TSA
# E. coli ATCC 14235 = experiment: as above; conditions: lactic acid alone, ca. 75 deg. F.
# Protocol: The tests were performed at ambient temperature (ca. 75 deg. F.). The “reaction” (i.e. interaction of antimicrobial agent and the target organism) was initiated by the addition of bacteria to the antimicrobial solution. The reaction was allowed to proceed for the respective time periods listed in Table I (i.e., at least 15 seconds each) and was terminated at the end of that time by adding quench buffer comprising 3.2 M potassium phosphate buffer, pH 7.2. The sample then was evaluated using serial 10-fold dilutions into sterile phosphate buffer as needed to determine, on Tryptic Soy agar (“TSA”), the titer of surviving bacteria. TSA is a medium that allows the growth of most bacteria.
# The reduction in the bacterial count is expressed as the “log kill” which is defined as log10 [initial cfu/ml]−log10 [remaining cfu/ml]; where “cfu” refers to “colony forming unit.” All log kills reported herein are positive “base 10.”). Inasmuch as the standard assay mixture contained only ca. 25×10^6 cfu initially (equivalent to 7.398 log) the theoretical maximum kill that can be measured with this assay system is ca. 7.4 log and the practical measuring limit is ca. 6 log. Therefore, high levels of log reduction were monitored by plating reaction mixtures directly (without dilution) onto agar medium. The results are reported in Table I and illustrated in graph format in FIG. 1. […] The tests were replicated with E. coli ATCC 43888, a pathogenic strain of E. coli O157:H7.
# [4] = 15 seconds, 74 to 80 degrees F.
# [5] = surfactant 0.2% in 2.5% lactic acid
# [6] = 2.5 wt. % lactic acid only (Niaproof 08 0.00)
compound,measurement,setting,value
ethoxylated nonylphenol [T-Det N 9.5],Log Kill (Lactic Acid + Surfactant),E. coli SAC-2 [1]; [4],0.18 log
"CCCCCCCCS(=O)(=O)[O-].[Na+] [Bioterge PAS-8S, sodium octane sulfonate]",Log Kill (Lactic Acid + Surfactant),E. coli ATCC 12435; [5],6.31 log
Polyoxyethylene (20) sorbitan monooleate [Tween 80],Log Kill (Lactic Acid + Surfactant),E. coli SAC-2 [1]; [4],0.18 log
"coconut based imidazoline, dicarboxylate, sodium salt [Amphoterge K2]",Log Kill (Lactic Acid + Surfactant),E. coli ATCC 12435; [5],2.86 log
CCCCC(CC)COC(=O)CC(C(=O)OCC(CC)CCCC)S(=O)(=O)[O-].[Na+] (centres unmarked) [Sodium dioctyl sulfosuccinate],Log Kill (Lactic Acid + Surfactant),E. coli ATCC 12435; [5],6.67 log
phosphate ester of polyoxyalkylated fatty alcohol [Klearfac AA270],Log Kill (Lactic Acid + Surfactant),E. coli SAC-2 [1]; [4],2.56 log
same,Log Kill (Lactic Acid + Surfactant),E. coli ATCC 12435; [5],6.31 log
"CC(O)C(=O)O (centres unmarked) [Lactic Acid, lactic acid, reference compound]",Log Kill (Lactic Acid),"E. coli SAC-2 [1]; 2.5% lactic acid only, paired control of the surfactant in that line, 15 seconds, 74 to 80 degrees F.",0.083 log
same,Enhancement Factor (log10 kill with lactic acid and surfactant divided by log10 kill with lactic acid only),E. coli SAC-2 [1]; [6],1.00
same,Log Kill,"E. coli SAC-2 [1]; 2.5 wt. % lactic acid only (Niaproof 08 0.00), 15 seconds, room temperature",0.456 log
same,Log Kill […] Lactic Acid,"E. coli SAC-2 [1]; […] lactic acid only (Niaproof 08 0.00), 15 seconds, 75 degrees F.",0.336 log
same,Log Kill (TSA),E. coli SAC-2 [1]; 15 secs,0.188 log
same,Log Kill (TSA),E. coli SAC-2 [1]; 30 secs,0.439 log
same,Log Kill (TSA),E. coli SAC-2 [1]; 45 secs,0.801 log
same,Description/Observation,E. coli ATCC 43888,Extensive bacterial growth.
same,Log Kill (VRBA),E. coli ATTC 12435; lactic acid 15 secs,5.328 log
same,Log Kill (VRBA),E. coli ATTC 12435; lactic acid 30 secs,5.328 log
same,Log Kill (VRBA),E. coli ATTC 12435; lactic acid 45 secs,5.328 log
same,Log Kill (VRBA),E. coli ATTC 12435; lactic acid 60 secs,5.328 log
same,Log Kill (Lactic Acid),"E. coli ATCC 12435; 2.5% lactic acid only, paired control of Niaproof 08, 15 seconds, 83 degrees F.",2.28 log
same,Enhancement Factor,E. coli ATCC 12435; [6],1.0
same,Log Kill,E. coli ATCC 12435; [6],2.283 log
same,Log Kill (TSA),E. coli ATCC 12435; 15 secs,1.431 log
same,Log Kill (TSA),E. coli ATCC 12435; 30 secs,2.217 log
same,Log Kill (TSA),E. coli ATCC 12435; 45 secs,3.246 log
same,Log Kill (TSA),E. coli ATCC 12435; 60 secs,3.722 log
same,Log Kill (VRBA),E. coli SAC-2 [2]; lactic acid 15 secs,0.509 log
same,Log Kill (VRBA),E. coli SAC-2 [2]; lactic acid 30 secs,2.812 log
same,Log Kill (VRBA),E. coli SAC-2 [2]; lactic acid 45 secs,3.330 log
same,in 2.5% Lactic Acid (Log Kill),[3]; 2.5% lactic acid only (sodium lauryl sulfate 0),2.2 log
same,Lactic Acid (Log Kill),"[3]; pH 2.19, 20 secs.",2.44 log
same,Lactic Acid (Log Kill),"[3]; pH 2.42, 20 secs.",2.71 log
same,Lactic Acid (Log Kill),"[3]; pH 2.59, 20 secs.",1.81 log
same,Lactic Acid (Log Kill),"[3]; pH 2.74, 20 secs.",1.21 log
same,Lactic Acid (Log Kill),"[3]; pH 2.86, 20 secs.",0.732 log
same,Lactic Acid (Log Kill),"[3]; pH 3.24, 20 secs.",0.117 log
same,Lactic Acid (Log Kill),"[3]; pH 3.67, 20 secs.",0.041 log
same,in […] Lactic Acid (Log Kill),"[3]; […] lactic acid only (sodium lauryl sulfate 0), 15 seconds, 75 degrees F.",0.403 log
same,Log Kill,[3]; 15 secs,1.24 log
same,Log Kill,[3]; 30 secs,1.76 log
same,Log Kill,[3]; 45 secs,1.89 log
same,Log Kill,[3]; 60 secs,2.63 log
same,Log Kill,E. coli ATCC 14235; 15 secs,1.431 log
same,Log Kill,E. coli ATCC 14235; 30 secs,2.217 log
same,Log Kill,E. coli ATCC 14235; 45 secs,3.246 log
same,Log Kill,E. coli ATCC 14235; 60 secs,3.722 log
coco amidoalkyl betaine [Norfox CAPB],Log Kill (Lactic Acid + Surfactant),E. coli ATCC 12435; 0.1% CAPB in 2.5% lactic acid,6.25 log
